Our source for the EC30 values is patent US10758534B2 (Vertex Pharmaceuticals Incorporated, priority 2014, dated 2020).

Where only a bound is given, the exact number is not on record here.

T1 sequence (P13569 with tags, fused parts or gaps DEL508-508): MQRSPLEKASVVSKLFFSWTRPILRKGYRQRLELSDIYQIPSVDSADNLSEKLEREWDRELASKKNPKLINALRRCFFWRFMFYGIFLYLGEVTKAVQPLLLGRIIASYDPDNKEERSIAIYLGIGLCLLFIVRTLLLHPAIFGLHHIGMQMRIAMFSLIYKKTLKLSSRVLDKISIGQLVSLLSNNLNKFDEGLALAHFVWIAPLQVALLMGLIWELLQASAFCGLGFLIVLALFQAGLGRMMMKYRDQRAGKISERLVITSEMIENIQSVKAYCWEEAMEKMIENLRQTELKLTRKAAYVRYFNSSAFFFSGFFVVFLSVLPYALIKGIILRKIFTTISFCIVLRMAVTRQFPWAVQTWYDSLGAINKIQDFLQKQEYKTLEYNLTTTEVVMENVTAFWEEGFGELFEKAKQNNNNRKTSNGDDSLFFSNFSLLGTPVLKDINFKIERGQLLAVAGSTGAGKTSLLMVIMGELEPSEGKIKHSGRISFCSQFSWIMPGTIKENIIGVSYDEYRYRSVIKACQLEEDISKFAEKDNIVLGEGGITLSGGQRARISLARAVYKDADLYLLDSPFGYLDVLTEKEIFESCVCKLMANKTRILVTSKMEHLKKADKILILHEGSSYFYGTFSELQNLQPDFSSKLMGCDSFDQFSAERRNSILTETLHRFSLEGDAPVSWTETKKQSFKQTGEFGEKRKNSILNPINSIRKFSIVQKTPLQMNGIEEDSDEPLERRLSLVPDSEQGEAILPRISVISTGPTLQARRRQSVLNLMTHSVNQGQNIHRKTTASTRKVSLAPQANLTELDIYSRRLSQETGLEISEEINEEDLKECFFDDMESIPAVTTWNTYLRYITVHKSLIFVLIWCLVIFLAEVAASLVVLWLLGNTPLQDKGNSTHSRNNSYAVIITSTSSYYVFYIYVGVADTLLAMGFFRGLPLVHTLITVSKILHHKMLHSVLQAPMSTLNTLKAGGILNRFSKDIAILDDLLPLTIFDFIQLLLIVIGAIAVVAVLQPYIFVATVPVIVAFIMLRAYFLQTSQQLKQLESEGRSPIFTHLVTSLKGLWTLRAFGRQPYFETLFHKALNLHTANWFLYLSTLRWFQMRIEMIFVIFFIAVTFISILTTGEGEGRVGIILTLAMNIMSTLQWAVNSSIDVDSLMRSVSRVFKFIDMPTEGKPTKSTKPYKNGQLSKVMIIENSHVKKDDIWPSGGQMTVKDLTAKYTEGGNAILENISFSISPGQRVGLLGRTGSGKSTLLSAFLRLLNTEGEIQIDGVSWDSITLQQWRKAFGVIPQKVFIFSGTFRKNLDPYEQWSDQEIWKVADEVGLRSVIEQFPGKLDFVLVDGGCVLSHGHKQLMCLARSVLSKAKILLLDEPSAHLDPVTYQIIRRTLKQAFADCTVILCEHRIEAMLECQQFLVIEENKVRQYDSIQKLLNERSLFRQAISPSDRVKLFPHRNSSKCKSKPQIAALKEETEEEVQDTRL

One assay has as its target T1, F508del (Homo sapiens, UniProt P13569, DEL508-508).
T1 construct: expressed in transfected cells
Briefly: Protocol 2: FRET membrane potential optical assay (VIPR), identification of correction compounds. Type of assay: cell-based. As to conditions: F508del CFTR modulator activity; compounds of Table 1. Put shortly: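 NIH3T3 mouse fibroblasts stably expressing F508del were treated with test compound for 16 hrs at 37° C. in serum-free medium; 27° C. incubation served as positive control. F508del was activated with 10 μM forskolin plus 20 μM genistein in Cl^−-free medium, and Cl^− efflux-driven depolarization was read by DiSBAC2(3)/CC2-DMPE FRET.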
In the case of `CC(C)COc1cc(F)cc(-c2ccc(C(=O)NS(=O)(=O)c3cccc(N)n3)c(C3=CC(C)CC3(C)C)n2)c1` (single isomer, unassigned) [Compound 2081, N-[(6-amino-2-pyridyl)sulfonyl]-6-(3-fluoro-5-isobutoxy-phenyl)-2-(3,5,5-trimethylcyclopenten-1-yl)pyridine-3-carboxamide], the EC30 result was “+++ (“+++” means <3 uM)”.

The same assay, now with this note: F508del CFTR modulator activity; compounds of Table 1; read-out: EC30.
Regarding `CC(C)COc1cc(F)cc(-c2ccc(C(=O)NS(=O)(=O)N[C@@H]3CCCNC3)c(N3C[C@@H](C)CC3(C)C)n2)c1` [Compound 2677, 6-(3-fluoro-5-isobutoxy-phenyl)-N-[[(3R)-3-piperidyl]sulfamoyl]-2-[(4S)-2,2,4-trimethylpyrrolidin-1-yl]pyridine-3-carboxamide], the 30% effect concentration (EC30) is less than 3000 nM.
Consider `CC1CN(c2ncccc2C(=O)NS(=O)(=O)c2cccc(N(C)CC3CC3)n2)C(C)(C)C1` (stereo not shown) [Compound 2044, N—[[6-[cyclopropylmethyl(methyl)amino]-2-pyridyl]sulfonyl]-2-(2,2,4-trimethylpyrrolidin-1-yl)pyridine-3-carboxamide], for which the concentration for an effect of 30% (EC30) was less than 3000 nM.
For `COc1ccc(F)c(-c2ccc(C(=O)NS(=O)(=O)c3ccc[nH]c3=O)c(N3C[C@@H](C)CC3(C)C)n2)c1` [Compound 2606, 6-(2-fluoro-5-methoxy-phenyl)-N-[(2-oxo-1H-pyridin-3-yl)sulfonyl]-2-[(4S)-2,2,4-trimethylpyrrolidin-1-yl]pyridine-3-carboxamide], the 30% effect concentration (EC30) is less than 3000 nM.
Turning to `Cc1ccc2cccc(Oc3cccc(S(=O)(=O)NC(=O)c4cccnc4N4CC(C)CC4(C)C)n3)c2n1` (stereo not shown) [Compound 2643, N—[[6-[(2-methyl-8-quinolyl)oxy]-2-pyridyl]sulfonyl]-2-(2,2,4-trimethylpyrrolidin-1-yl)pyridine-3-carboxamide], the 30% effect concentration (EC30) is less than 3000 nM.
On to `Cc1ccc(-c2ccc(C(=O)NS(=O)(=O)c3cccc(N)n3)c(N3CC(C)CC3(C)C)n2)nc1NCC(C)C` (stereo not shown) [Compound 2362, N-[(6-amino-2-pyridyl)sulfonyl]-6-[6-(isobutylamino)-5-methyl-2-pyridyl]-2-(2,2,4-trimethylpyrrolidin-1-yl)pyridine-3-carboxamide], for which the 30% effect concentration (EC30) was less than 3000 nM.
Still for that read-out and setting: for `C[C@@H]1CN(c2nc(-c3cccc(C(F)(F)F)c3)ccc2C(=O)NS(=O)(=O)c2ccc[nH]c2=O)C(C)(C)C1` [Compound 2144, N-[(2-oxo-1H-pyridin-3-yl)sulfonyl]-6-[3-(trifluoromethyl)phenyl]-2-[(4S)-2,2,4-trimethylpyrrolidin-1-yl]pyridine-3-carboxamide] the value was less than 3000 nM; for `CCOc1cccc(Nc2cccc(S(=O)(=O)NC(=O)c3cccnc3N3CC(C)CC3(C)C)n2)c1` (stereo not shown) [Compound 2526, N—[[6-(3-ethoxyanilino)-2-pyridyl]sulfonyl]-2-(2,2,4-trimethylpyrrolidin-1-yl)pyridine-3-carboxamide], less than 3000 nM; for `CC(C)Cn1cc(-c2ccc(C(=O)NS(=O)(=O)c3cccnc3N)c(N3C[C@@H](C)CC3(C)C)n2)cn1` [Compound 2231, N-[(2-amino-3-pyridyl)sulfonyl]-6-(1-isobutylpyrazol-4-yl)-2-[(4S)-2,2,4-trimethylpyrrolidin-1-yl]pyridine-3-carboxamide], less than 3000 nM.
As to `CC1CN(c2ncccc2C(=O)NS(=O)(=O)c2cccc(Nc3ccc(Cl)cc3Cl)n2)C(C)(C)C1` (stereo not shown) [Compound 2217, N—[[6-(2,4-dichloroanilino)-2-pyridyl]sulfonyl]-2-(2,2,4-trimethylpyrrolidin-1-yl)pyridine-3-carboxamide], the EC30 was less than 3000 nM.
For the compound `CC1CN(c2ncccc2C(=O)NS(=O)(=O)c2cccc(OC3CCCC(C)(C)C3)n2)C(C)(C)C1` (stereo not shown) [Compound 2038, N—[[6-(3,3-dimethylcyclohexoxy)-2-pyridyl]sulfonyl]-2-(2,2,4-trimethylpyrrolidin-1-yl)pyridine-3-carboxamide], the concentration for an effect of 30% (EC30) is less than 3000 nM.

The same assay, now with this note: Table 3; compounds of Table 1 as modulators of CFTR activity; protocol not stated.
As for `CCC1CCN(c2nc(-c3ccc(OC(C)C)nc3)ccc2C(=O)NS(=O)(=O)c2cccc(N)n2)CC1` [Compound 619, N-[(6-amino-2-pyridyl)sulfonyl]-2-(4-ethyl-1-piperidyl)-6-(6-isopropoxy-3-pyridyl)pyridine-3-carboxamide], the 30% effect concentration (EC30) result was “+++ (“+++” means <3 uM)”.
In the case of `CCCOc1cc(-c2ccc(C(=O)NS(=O)(=O)c3cccc(N)n3)c(N3CC(C)CC3(C)C)n2)ccc1Cl` (stereo not shown) [Compound 644, N-[(6-amino-2-pyridyl)sulfonyl]-6-(4-chloro-3-propoxy-phenyl)-2-(2,2,4-trimethylpyrrolidin-1-yl)pyridine-3-carboxamide], the concentration for an effect of 30% (EC30) result is reported as “+++ (“+++” means <3 uM)”.
Turning to `Cc1cccc(C)c1Cn1nc(-c2cccc(CN3CCOCC3)c2)cc1C(=O)NS(=O)(=O)c1ccccc1` [Compound 302, N-(benzenesulfonyl)-2-[(2,6-dimethylphenyl)methyl]-5-[3-(morpholinomethyl)phenyl]pyrazole-3-carboxamide], the EC30 result was “++ (“++” means between 3 uM and 10 uM)”.
Turning to `COc1c(F)cccc1-c1ccc(C(=O)NS(=O)(=O)c2cccc(N)n2)c(Oc2c(C)cc(C)cc2C)n1` [Compound 396, N-[(6-amino-2-pyridyl)sulfonyl]-6-(3-fluoro-2-methoxy-phenyl)-2-(2,4,6-trimethylphenoxy)pyridine-3-carboxamide], the EC30 entry is “+++ (“+++” means <3 uM)”.
On the same count and under the same terms, for `CC(C)COc1cc(F)cc(-c2ccc(C(=O)NS(=O)(=O)c3cccc(N)n3)c(N3CCC(C)C(C)(C)C3)n2)c1` (stereo not shown) [Compound 575, N-[(6-amino-2-pyridyl)sulfonyl]-6-(3-fluoro-5-isobutoxy-phenyl)-2-(3,3,4-trimethyl-1-piperidyl)pyridine-3-carboxamide] the value was “+++ (“+++” means <3 uM)”.
Same read-out and setting: for `Cc1cc(C)c(Oc2nn(C(C)(C)C)cc2C(=O)NS(=O)(=O)c2cccc(N)n2)c(C)c1` [Compound 256, N-[(6-amino-2-pyridyl)sulfonyl]-1-tert-butyl-3-(2,4,6-trimethylphenoxy)pyrazole-4-carboxamide] the value was “+++ (“+++” means <3 uM)”; for `CCOc1ccc(-c2ccc(C(=O)NS(=O)(=O)c3ccc[nH]c3=O)c(Oc3ccc(C)cc3C)n2)cc1` [Compound 517, 2-(2,4-dimethylphenoxy)-6-(4-ethoxyphenyl)-N-[(2-oxo-1H-pyridin-3-yl)sulfonyl]pyridine-3-carboxamide], “++ (“++” means between 3 uM and 10 uM)”; for `Cc1cc(C)c(Cc2ccc(C(C)(C)C)nc2C(=O)NS(=O)(=O)c2ccccc2)c(C)c1` [Compound 22, N-(benzenesulfonyl)-6-tert-butyl-3-[(2,4,6-trimethylphenyl)methyl]pyridine-2-carboxamide], “+++ (“+++” means <3 uM)”.
`COc1cccc(S(=O)(=O)NC(=O)c2cc3ccccc3n2Cc2c(C)cc(C)cc2C)n1` [Compound 253, N-[(6-methoxy-2-pyridyl)sulfonyl]-1-[(2,4,6-trimethylphenyl)methyl]indole-2-carboxamide]: the EC30 result was “+++ (“+++” means <3 uM)”.
Consider `CC(C)COc1cc(F)cc(-c2ccc(C(=O)NS(=O)(=O)c3ccc[nH]c3=O)c(N3CCC(C)CC3)n2)c1` [Compound 422, 6-(3-fluoro-5-isobutoxy-phenyl)-2-(4-methyl-1-piperidyl)-N-[(2-oxo-1H-pyridin-3-yl)sulfonyl]pyridine-3-carboxamide], for which the concentration for an effect of 30% (EC30) entry is listed as “+++ (“+++” means <3 uM)”.
For `Cc1cc(C)c(Oc2nc(C3CC3)cc(C(F)(F)F)c2C(=O)NS(=O)(=O)c2cccc(N)n2)c(C)c1` [Compound 54, N-[(6-amino-2-pyridyl)sulfonyl]-6-cyclopropyl-4-(trifluoromethyl)-2-(2,4,6-trimethylphenoxy)pyridine-3-carboxamide], the EC30 result is “++ (“++” means between 3 uM and 10 uM)”.
In the case of `CC(C)COc1cc(F)cc(-c2ccc(C(=O)NS(=O)(=O)c3cccc(N)n3)c(N3C[C@@H](C)CC3(C)C)n2)c1` [Compound 368, N-[(6-amino-2-pyridyl)sulfonyl]-6-(3-fluoro-5-isobutoxy-phenyl)-2-[(4S)-2,2,4-trimethylpyrrolidin-1-yl]pyridine-3-carboxamide], the EC30 result was “+++ (“+++” means <3 uM)”.
For the compound `CC1CCN(c2nc(-c3cc(F)cc(OC(C)C)c3)ccc2C(=O)NS(=O)(=O)c2ccc[nH]c2=O)CC1` [Compound 737, 6-(3-fluoro-5-isopropoxy-phenyl)-2-(4-methyl-1-piperidyl)-N-[(2-oxo-1H-pyridin-3-yl)sulfonyl]pyridine-3-carboxamide], the concentration for an effect of 30% (EC30) entry is given as “+++ (“+++” means <3 uM)”.
For `CC(C)COc1cc(F)cc(-c2ccc(C(=O)NS(=O)(=O)c3cccc(O)c3)c(N3CC(C)CC3(C)C)n2)c1` (stereo not shown) [Compound 395, 6-(3-fluoro-5-isobutoxy-phenyl)-N-(3-hydroxyphenyl)sulfonyl-2-(2,2,4-trimethylpyrrolidin-1-yl)pyridine-3-carboxamide], the EC30 entry is reported as “+++ (“+++” means <3 uM)”.
`Cc1ccc(-c2nc(C(C)(C)C)ccc2C(=O)NS(=O)(=O)c2ccn[nH]2)cc1` [Compound 632, 6-tert-butyl-2-(p-tolyl)-N-(1H-pyrazol-5-ylsulfonyl)pyridine-3-carboxamide]: the concentration for an effect of 30% (EC30) entry is “++ (“++” means between 3 uM and 10 uM)”.
The same measure, in the same setting: for `Cc1cc(C)c(Oc2nc(-c3ccc(Cl)c(OC(C)C)c3)ccc2C(=O)NS(=O)(=O)c2cccc(N)n2)c(C)c1` [Compound 281, N-[(6-amino-2-pyridyl)sulfonyl]-6-(4-chloro-3-isopropoxy-phenyl)-2-(2,4,6-trimethylphenoxy)pyridine-3-carboxamide] the value was “+++ (“+++” means <3 uM)”; for `Cc1cccc(C)c1Cn1nc(-c2ccccc2F)cc1C(=O)NS(=O)(=O)c1ccccc1` [Compound 109, N-(benzenesulfonyl)-2-[(2,6-dimethylphenyl)methyl]-5-(2-fluorophenyl)pyrazole-3-carboxamide], “+++ (“+++” means <3 uM)”.
